Measured values as given in US7479493B2, “Substituted benzyl amine compounds” (Janssen Pharmaceutica N.V., priority 2006, dated 2009).

What was measured:
human H3 receptor = human H3 receptor (Homo sapiens, UniProt Q9Y5N1); assay: Cyclic AMP Accumulation (reporter gene, SK-N-MC cells)
Procedure: Sublines of SK-N-MC cells were created that expressed a reporter construct and the human H3 receptor. The reporter gene (β-galactosidase) is under the control of multiple cyclic AMP responsive elements. In 96-well plates, histamine was added directly to the cell media followed 5 min later by an addition of forskolin (5 μM final concentration). When appropriate, antagonists were added 10 min prior to agonist addition. After a 6-h incubation at 37° C., the media was aspirated and the cells washed with 200 μL of phosphate-buffered saline followed by a second aspiration. […] Color was developed using 25 μL of 1 mg/mL substrate solution (chlorophenolred β-D galactopyranoside; Roche Molecular Biochemicals, Indianapolis, Ind.).

cloned human H3 receptor = cloned human H3 receptor (Homo sapiens, UniProt Q9Y5N1); assay: H3 Receptor Binding; conditions: cloned human H3 receptor stably expressed in SK-N-MC cells
Rat SERT = Rat SERT (Rattus norvegicus, UniProt P31652); assay: biochemical
Chain of Rat SERT (P31652 whole entry): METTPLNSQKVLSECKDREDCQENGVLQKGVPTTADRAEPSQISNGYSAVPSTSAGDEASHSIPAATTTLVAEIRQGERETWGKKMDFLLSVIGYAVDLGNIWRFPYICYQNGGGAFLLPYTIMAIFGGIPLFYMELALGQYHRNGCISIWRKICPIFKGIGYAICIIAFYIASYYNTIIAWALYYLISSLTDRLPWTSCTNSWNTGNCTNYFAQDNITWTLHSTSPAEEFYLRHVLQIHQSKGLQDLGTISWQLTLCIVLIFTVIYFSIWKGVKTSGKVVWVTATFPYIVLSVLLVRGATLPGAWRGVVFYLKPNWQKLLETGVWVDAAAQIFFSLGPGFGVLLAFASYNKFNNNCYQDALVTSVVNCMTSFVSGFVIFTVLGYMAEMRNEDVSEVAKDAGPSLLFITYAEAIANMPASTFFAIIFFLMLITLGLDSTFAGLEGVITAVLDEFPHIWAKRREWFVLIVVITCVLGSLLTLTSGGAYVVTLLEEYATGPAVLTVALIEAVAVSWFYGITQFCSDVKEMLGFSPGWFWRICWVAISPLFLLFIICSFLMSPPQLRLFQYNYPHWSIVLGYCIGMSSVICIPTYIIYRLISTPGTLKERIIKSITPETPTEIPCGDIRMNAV
Procedure: The supernatant was removed and re-centrifuged at 15,000 rpm for 30 min. […] Membranes were incubated with 0.6 nM [^3H]-Citalopram plus/minus test compounds for 60 min at 25° C. and harvested by rapid filtration over GF/C glass fiber filters (pretreated with 0.3% polyethylenimine) followed by four washes with ice-cold buffer. Nonspecific binding was defined in the presence of 100 μM fluoxetine.

Chain of human H3 receptor (Q9Y5N1 whole entry): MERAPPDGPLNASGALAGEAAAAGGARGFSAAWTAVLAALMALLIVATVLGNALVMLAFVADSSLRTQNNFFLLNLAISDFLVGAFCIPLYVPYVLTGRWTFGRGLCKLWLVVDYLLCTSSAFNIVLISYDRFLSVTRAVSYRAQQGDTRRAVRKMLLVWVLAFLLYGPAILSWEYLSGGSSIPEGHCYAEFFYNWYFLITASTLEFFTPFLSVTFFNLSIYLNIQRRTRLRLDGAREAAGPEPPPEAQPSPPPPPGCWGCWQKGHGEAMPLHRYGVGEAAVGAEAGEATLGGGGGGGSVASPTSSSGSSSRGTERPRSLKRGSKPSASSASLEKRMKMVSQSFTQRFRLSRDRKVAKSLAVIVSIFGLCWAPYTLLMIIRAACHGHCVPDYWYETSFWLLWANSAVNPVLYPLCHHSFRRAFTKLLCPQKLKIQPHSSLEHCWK
Chain of cloned human H3 receptor (Q9Y5N1 whole entry): as above

Row | SMILES | Kb (human H3 receptor) [nM] | Ki (cloned human H3 receptor) [nM] | Ki (Rat SERT) [nM]
1 | CC(C)N1CCN(C(=O)c2ccc(CNC3CC3)c(Oc3cccnc3)c2)CC1 [Example 30, [4-Cyclopropylaminomethyl-3-(pyridin-3-yloxy)-phenyl]-(4-isopropyl-piperazin-1-yl)-methanone] | 0.794 | 3 | 4000
2 | O=C(c1ccc(CNC2CC2)c(Oc2cccnc2)c1)N1CCN(C2CC2)CC1 [Example 31, [4-Cyclopropylaminomethyl-3-(pyridin-3-yloxy)-phenyl]-(4-cyclopropyl-piperazin-1-yl)-methanone] | 1.58 | 10 | 1000
3 | CC(C)N1CCN(C(=O)c2ccc(CN3CCCCC3)c(Oc3cccnc3)c2)CC1 [Example 33, (4-Isopropyl-piperazin-1-yl)-[4-piperidin-1-ylmethyl-3-(pyridin-3-yloxy)-phenyl]-methanone] | 0.316 | 2 | –
4 | O=C(c1ccc(CN2CCCCC2)c(Oc2cccnc2)c1)N1CCN(C2CC2)CC1 [Example 34, (4-Cyclopropyl-piperazin-1-yl)-[4-piperidin-1-ylmethyl-3-(pyridin-3-yloxy)-phenyl]-methanone] | 1.26 | 3 | –
5 | CN(C)C1CCN(C(=O)c2ccc(CN3CCCCC3)c(Oc3cccnc3)c2)C1 (centres unmarked) [Example 35, (3-Dimethylamino-pyrrolidin-1-yl)-[4-piperidin-1-ylmethyl-3-(pyridin-3-yloxy)-phenyl]-methanone] | 2.51 | 7 | –
6 | CNCc1ccc(C(=O)N2CCN(C(C)C)CC2)cc1Oc1ccc(Cl)cc1 [Example 36, [3-(4-Chloro-phenoxy)-4-methylaminomethyl-phenyl]-(4-isopropyl-piperazin-1-yl)-methanone] | 6.31 | 4 | 28
7 | CNCc1cc(N2CCN(c3ccncc3)CC2)ccc1Oc1ccc(SC)cc1 [Example 43, Methyl-[2-(4-methylsulfanyl-phenoxy)-5-(4-pyridin-4-yl-piperazin-1-yl)-benzyl]-amine] | – | 110 | 0.7
8 | CNCc1cc(N2CCN(CCF)CC2)ccc1Oc1ccc(SC)cc1 [Example 44, [5-[4-(2-Fluoro-ethyl)-piperazin-1-yl]-2-(4-methylsulfanyl-phenoxy)-benzyl]-methyl-amine] | – | 160 | 0.5
9 | CNCc1cc(N2CCN(C3CC3)CC2)ccc1Oc1ccc(SC)cc1 [Example 45, [5-(4-Cyclopropyl-piperazin-1-yl)-2-(4-methylsulfanyl-phenoxy)-benzyl]-methyl-amine] | – | 76 | 1
10 | CNCc1cc(N2CCN(C3CC3)CC2)ccc1Oc1ccc(Cl)c(Cl)c1 [Example 46, [5-(4-Cyclopropyl-piperazin-1-yl)-2-(3,4-dichloro-phenoxy)-benzyl]-methyl-amine] | – | 49 | 4
11 | CNCc1cc(N2CCN(C(C)C)CC2)ccc1Oc1ccc(Cl)c(Cl)c1 [Example 47, [2-(3,4-Dichloro-phenoxy)-5-(4-isopropyl-piperazin-1-yl)-benzyl]-methyl-amine] | – | 20 | 2
12 | CNCc1cc(N2CCNCC2=O)ccc1Oc1ccc(SC)cc1 [Example 48, 1-[3-Methylaminomethyl-4-(4-methylsulfanyl-phenoxy)-phenyl]-piperazin-2-one] | – | 5500 | 0.4
13 | CNCc1cc(N2CCN(C(C)C)CC2=O)ccc1Oc1ccc(SC)cc1 [Example 49, 4-Isopropyl-1-[3-methylaminomethyl-4-(4-methylsulfanyl-phenoxy)-phenyl]-piperazin-2-one] | – | 400 | 2
14 | CNCc1cc(N2CCN(C(C)C)CC2=O)ccc1Oc1ccc(Cl)c(Cl)c1 [Example 50, 1-[4-(3,4-Dichloro-phenoxy)-3-methylaminomethyl-phenyl]-4-isopropyl-piperazin-2-one] | – | 150 | 7
15 | CNCc1cc(N2CCC(N3CCOCC3)CC2)ccc1Oc1ccc(SC)cc1 [Example 51, Methyl-[2-(4-methylsulfanyl-phenoxy)-5-(4-morpholin-4-yl-piperidin-1-yl)-benzyl]-amine] | – | 28 | 2
16 | CNCc1cc(N2CCCN(C(C)C)CC2)ccc1Oc1ccc(SC)cc1 [Example 52, [5-(4-Isopropyl-[1,4]diazepan-1-yl)-2-(4-methylsulfanyl-phenoxy)-benzyl]-methyl-amine] | – | 8 | 1
17 | CNCc1cc(N2CCCN(C3CC3)CC2)ccc1Oc1ccc(SC)cc1 [Example 53, [5-(4-Cyclopropyl-[1,4]diazepan-1-yl)-2-(4-methylsulfanyl-phenoxy)-benzyl]-methyl-amine] | – | 28 | 6
18 | CNCc1cc(N2CCCN(C(C)C)CC2)ccc1Oc1ccc(Cl)c(Cl)c1 [Example 55, [2-(3,4-Dichloro-phenoxy)-5-(4-isopropyl-[1,4]diazepan-1-yl)-benzyl]-methyl-amine] | – | 27 | 10
19 | CNCc1cc(N2CCCN(C3CC3)CC2)ccc1Oc1ccc(Cl)c(Cl)c1 [Example 56, [5-(4-Cyclopropyl-[1,4]diazepan-1-yl)-2-(3,4-dichloro-phenoxy)-benzyl]-methyl-amine] | – | 25 | 16

Row | SMILES | Kb (human H3 receptor) [nM] | Ki (cloned human H3 receptor) [nM] | Ki (Rat SERT) [nM]
20 | CNCc1cc(N2CCN(C3CC3)CCC2=O)ccc1Oc1ccc(SC)cc1 [Example 57, 1-Cyclopropyl-4-[3-methylaminomethyl-4-(4-methylsulfanyl-phenoxy)-phenyl]-[1,4]diazepan-5-one] | – | 37 | 4
21 | CNCc1cc(N2CC[C@H](N(C)C)C2)ccc1Oc1ccc(SC)cc1 [Example 58, (S)-Dimethyl-{1-[3-methylaminomethyl-4-(4-methylsulfanyl-phenoxy)-phenyl]-pyrrolidin-3-yl}-amine] | – | 300 | 6
22 | CNCc1cc(C(=O)N2CCN(C3CC3)CC2)ccc1OCc1ccc(Cl)c(Cl)c1 [Example 59, (4-Cyclopropyl-piperazin-1-yl)-[4-(3,4-dichloro-benzyloxy)-3-methylaminomethyl-phenyl]-methanone] | – | 70 | 4
23 | CSc1ccc(Oc2ccc(CN3CCN(C(C)C)CC3)cc2CNC2CC2)cc1 [Example 60, Cyclopropyl-[5-(4-isopropyl-piperazin-1-ylmethyl)-2-(4-methylsulfanyl-phenoxy)-benzyl]-amine] | – | 2 | 3
24 | CNCc1cc(CN2CCN(C(C)C)CC2)ccc1Oc1ccc(SC)cc1 [Example 61, [5-(4-Isopropyl-piperazin-1-ylmethyl)-2-(4-methylsulfanyl-phenoxy)-benzyl]-methyl-amine] | – | 2 | 0.8
25 | CSc1ccc(Oc2ccc(CN3CCN(C(C)C)CC3)cc2CN(C)C)cc1 [Example 62, [5-(4-Isopropyl-piperazin-1-ylmethyl)-2-(4-methylsulfanyl-phenoxy)-benzyl]-dimethyl-amine] | – | 21 | 1
26 | CCNCc1cc(CN2CCN(C(C)C)CC2)ccc1Oc1ccc(SC)cc1 [Example 63, Ethyl-[5-(4-isopropyl-piperazin-1-ylmethyl)-2-(4-methylsulfanyl-phenoxy)-benzyl]-amine] | – | 0.9 | 6
27 | CSc1ccc(Oc2ccc(CN3CCN(C(C)C)CC3)cc2CNC(C)C)cc1 [Example 64, Isopropyl-[5-(4-isopropyl-piperazin-1-ylmethyl)-2-(4-methylsulfanyl-phenoxy)-benzyl]-amine] | – | 0.5 | 7
28 | CSc1ccc(Oc2ccc(CN3CCN(C(C)C)CC3)cc2CN)cc1 [Example 65, 5-(4-Isopropyl-piperazin-1-ylmethyl)-2-(4-methylsulfanyl-phenoxy)-benzylamine] | – | 4 | 18
29 | CNCc1cc(CN2CCN(C(C)C)C(=O)C2)ccc1Oc1ccc(Cl)c(Cl)c1 [Example 66, 4-[4-(3,4-Dichloro-phenoxy)-3-methylaminomethyl-benzyl]-1-isopropyl-piperazin-2-one] | – | 2500 | 6
30 | CNCc1cc(CN2CCN(C(C)C)CC2=O)ccc1Oc1ccc(Cl)c(Cl)c1 [Example 67, 1-[4-(3,4-Dichloro-phenoxy)-3-methylaminomethyl-benzyl]-4-isopropyl-piperazin-2-one] | – | 6 | 4
31 | CNCc1cc(CN2CCC(=O)N(C(C)C)CC2)ccc1Oc1ccc(Cl)c(Cl)c1 [Example 68, 1-[4-(3,4-Dichloro-phenoxy)-3-methylaminomethyl-benzyl]-4-isopropyl-[1,4]diazepan-5-one] | – | 6300 | 7
32 | CNCc1cc(CN2CCN(C(C)C)CCC2=O)ccc1Oc1ccc(Cl)c(Cl)c1 [Example 69, 4-[4-(3,4-Dichloro-phenoxy)-3-methylaminomethyl-benzyl]-1-isopropyl-[1,4]diazepan-5-one] | – | 110 | 4
33 | CNCc1cc(CN2CCN(C3CCC3)CCC2=O)ccc1Oc1ccc(Cl)c(Cl)c1 [Example 70, 1-Cyclobutyl-4-[4-(3,4-dichloro-phenoxy)-3-methylaminomethyl-benzyl]-[1,4]diazepan-5-one] | – | 19 | 5
34 | CNCc1cc(C(=O)NCCN2CCCC2)ccc1Oc1cccc(Cl)c1 [Example 71, 4-(3-Chloro-phenoxy)-3-methylaminomethyl-N-(2-pyrrolidin-1-yl-ethyl)-benzamide] | – | 6 | 2
35 | CNCc1cc(C(=O)N2CCN(C3CCC3)CC2)ccc1Oc1cccc(Cl)c1 [Example 72, [4-(3-Chloro-phenoxy)-3-methylaminomethyl-phenyl]-(4-cyclobutyl-piperazin-1-yl)-methanone] | – | 4 | 65
36 | Cc1ccc(Oc2cc(C(=O)N3CCN(C4CC4)CC3)ccc2CN(C)C)c(C)n1 [Example 80, (4-Cyclopropyl-piperazin-1-yl)-[4-dimethylaminomethyl-3-(2,6-dimethyl-pyridin-3-yloxy)-phenyl]-methanone] | – | 140 | 500
37 | CN(C)Cc1ccc(C(=O)N2CCN(C3CC3)CC2)cc1OCc1ccccc1 [Example 81, (3-Benzyloxy-4-dimethylaminomethyl-phenyl)-(4-cyclopropyl-piperazin-1-yl)-methanone] | – | 67 | 8000
